US20170073337A1, “DIHYDROTHIAZINE AND DIHYDROOXAZINE DERIVATIVES HAVING BACE1 INHIBITORY ACTIVITY” (Shionogi & Co., Ltd., priority 2014, published 2017)
≈ marks a conversion by molar mass, not a printed value. Like-named read-outs stand apart in the source and are kept apart here.

Tests used:
CYP2C19 = biological target: T1, CYP2C19 (Homo sapiens, UniProt P33261); test: CYP inhibition test (CYP2C19); assay type: in vitro ADME; conditions: pooled human liver microsomes; mephenytoin 4′-hydroxylation
T1 construct: The commercially available pooled human liver microsomes are used as an enzyme resource; from tissue; host or cells: pooled human liver microsomes
Source text: (§1) The CYP inhibition test is a test to assess the inhibitory effect of a compound of the present invention towards typical substrate metabolism reactions on CYP enzymes in human liver microsomes. The marker reactions on human main five CYP enzymes (CYP1A2, 2C9, 2C19, 2D6, and 3A4) are used as follows: 7-ethoxyresorufin O-deethylation (CYP1A2), tolbutamide methyl-hydroxylation (CYP2C9), mephenytoin 4′-hydroxylation (CYP2C19), dextromethorphan O-demethylation (CYP2D6), and terfenadine hydroxylation (CYP3A4). The commercially available pooled human liver microsomes are used as an enzyme resource.
(§2) The reaction conditions were as follows: substrate, 0.5 μmol/L ethoxyresorufin (CYP1A2), 100 μmol/L tolbutamide (CYP2C9), 50 μmol/L, S-mephenytoin (CYP2C19), 5 μmol/L dextromethorphan (CYP2D6), 1 μmol/L terfenadine (CYP3A4): reaction time, 15 minutes: reaction temperature, 37° C.; enzyme, pooled human liver microsomes 0.2 mg protein/mL; concentrations of the compound of the present invention, 1, 5, 10, 20 μmol/L (four points).
(§3) Five kinds of substrates, human liver microsomes, and a compound solution of the present invention in […] Hepes buffer were added to a 96-well plate at the composition as described above as a reaction solution. NADPH as a cofactor was added to this 96-well plate in order to initiate metabolism reactions. After the incubation at 37° C.for […], a methanol/acetonitrile=1/1 (v/v) solution was added to stop the reaction. After the centrifugation at 3000 rpm for 15 minutes, resorufin (CYP1A2 metabolite) in the supernatant was quantified by a fluorescent plate reader, and hydroxytolbutamide (CYP2C9 metabolite), 4′-hydroxymephenytoin (CYP2C19 metabolite), dextrorphan (CYP2D6 metabolite), and terfenadine alcohol metabolite (CYP3A4 metabolite) in the supernatant were quantified by LC/MS/MS.
(§4) The sample adding DMSO to a reaction system instead of compound of the present invention solution was adopted as a control (100%) because DMSO was used as a solvent to dissolve a compound of the present invention. Remaining activity (%) was calculated at each concentration of a compound of the present invention, and IC50 value was calculated by reverse presumption by a logistic model using a concentration and an inhibition rate.

Solubility test = assay type: physicochemical; conditions: for solubility kinetic at 1 h: kinetic from dmso stock; for solubility kinetic at 16 h: solubility in JP 2nd fluid B, 1% DMSO, *2: shaken for 1 hour at room temperature
Method: A 10 mmol/L solution of the compound was prepared with DMSO, and 2 μL of the compound of the present invention solution was added, respectively, to 198 μL of JP 1st fluid (water was added to 2.0 g of sodium chloride and 7.0 ml, of hydrochloric acid to reach 1000 mL) and JP 2nd fluid (See Table 4). The mixture was left standing for 16 hours at 25° C. or shaken for 1 hour at ruom temperature, and the mixture was vacuum-filtered. The […] was ten or one hundred-fold diluted with metbanol/water=1/1 (v/v) or MeCN/MeOH/H2O(=1/1/2), and the compound concent ration in the filtrate was measured with LC/MS or solid phase extraction (SPE)/MS by the absolute calibration method.

CYP1A2 = biological target: T2, CYP1A2 (Homo sapiens, UniProt P05177); test: CYP inhibition test (CYP1A2); assay type: in vitro ADME; conditions: pooled human liver microsomes; 7-ethoxyresorufin O-deethylation
T2 construct: The commercially available pooled human liver microsomes are used as an enzyme resource; from tissue; host or cells: pooled human liver microsomes
T2 sequence (P05177 1-516): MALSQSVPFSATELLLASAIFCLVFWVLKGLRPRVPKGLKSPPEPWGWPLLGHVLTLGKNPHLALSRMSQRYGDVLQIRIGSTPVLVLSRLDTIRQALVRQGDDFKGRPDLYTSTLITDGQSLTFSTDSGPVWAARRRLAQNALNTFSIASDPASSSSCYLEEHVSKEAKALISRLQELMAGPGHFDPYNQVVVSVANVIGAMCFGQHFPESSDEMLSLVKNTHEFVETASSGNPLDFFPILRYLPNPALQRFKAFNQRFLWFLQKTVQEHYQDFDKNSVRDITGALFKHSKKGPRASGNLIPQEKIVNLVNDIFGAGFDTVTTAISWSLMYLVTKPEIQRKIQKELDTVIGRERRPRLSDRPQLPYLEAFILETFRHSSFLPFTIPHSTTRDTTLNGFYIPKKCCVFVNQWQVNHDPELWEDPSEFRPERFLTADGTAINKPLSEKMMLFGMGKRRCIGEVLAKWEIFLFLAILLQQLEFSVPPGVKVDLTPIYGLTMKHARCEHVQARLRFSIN
Source text: as §1, §2, §3, §4

CYP3A4 = biological target: T3, CYP3A4 (Homo sapiens, UniProt P08684); test: CYP inhibition test (CYP3A4); assay type: in vitro ADME; conditions: pooled human liver microsomes; terfenadine hydroxylation
T3 construct: The commercially available pooled human liver microsomes are used as an enzyme resource; from tissue; host or cells: pooled human liver microsomes
Source text: as §1, §2, §3, §4

Recombinant human BACE1 = biological target: T4, Recombinant human BACE1 (Homo sapiens, UniProt P56817); test: Assay of BACE1 inhibitory activity: 384-well; assay type: biochemical; conditions: Assay format 384-well
T4 construct: purchased R&D Systems
Method: 5 μL of substrate peptide solution (Biotin-XSEVNLDAEFRHDSGC-Eu: X=ε-amino-n-capronic acid, Eu=Europium eryplate) was added to each well of 384-well plate (a black plate: Corning), and after addition of 0.1 μl of the compound of the present invention (DMSO solution) and 5 μl of Recombinant human BACE1 (R&D Systems), the reaction mixture was incubated at 25° C. for 2 hours. The substrate peptide was synthesized by reacting Cryptate TBPCOOH mono SMP (CIS bio international) with Biotin-XSEVNLDAEFRHDSGC (Peptide Institute, Inc.).
After the incubation for reaction, 10 μl of 8.0 μg/ml Streptavidin-XL665 (CIS bio International) dissolved in phosphate buffer (150 mmol/L K2HPO4-KH2PO4, pH 7.0, 0.008% Triton X-100, 0.8 mol/L KF) was added to each well and left stand at 25° C. for 30 minutes.

[1] = test system: Aβ production in neuroblastoma SH-SY5Y cells (SH/APPwt); test: β-amyloid (Aβ) production inhibitory effect in cell: 384-well; assay type: cell-based; conditions: Homo sapiens, Assay format 384-well
Method: Neuroblastoma SH-SY5Y cells (SH/APPwt) with human wild-type β-APT excessively expressed therein were prepared at 4×10^5 cells/mL, and 50 μl portions thereof were inoculated into each well of a 384-well culture plate (Corning) added 0.5 μl of the test compound of the present invention (DMSO solution). The final DMSO concentration was 1%, and the amount of the cell culture was 50 μl. After the incubation was performed for 21 hours from the cell seeding, 5 μl of the culture supernatant was collected from each fraction. The amount of the Aβ in each fraction was measured.
The Aβ amount was measured as follows. 5 μl of a homogeneous time resolved fluoresrenee (HTRF) measurement reagent (Amyloid β1-40 peptide; CIS bio international) and 5 μl of the culture supernatant were put into a 384′well plate (a black plate: Corning) and mixed with each other, and then left standing overnight at 4° C. while the light was shielded. Then, the fluorescence intensity (620 nm and 665 nm) was measured with EnViston (Perkin Elmer life sciences).

CYP2C9 = biological target: T5, CYP2C9 (Homo sapiens, UniProt P11712); test: CYP inhibition test (CYP2C9); assay type: in vitro ADME; conditions: pooled human liver microsomes; tolbutamide methyl-hydroxylation
T5 construct: The commercially available pooled human liver microsomes are used as an enzyme resource; from tissue; host or cells: pooled human liver microsomes
Source text: as §1, §2, §3, §4

Metabolic stability test = assay type: in vitro ADME; conditions: human liver microsomes, 37° C., 30 minutes, NADPH
Method: Using a commercially available pooled human liver microsomes, a compound of the present invention was reacted for a constant time, a remaining rate was calculated by comparing a reacted sample and an unreacted sample, thereby, a degree of metabolism in liver was assessed.
A reaction was performed (oxidative reaction) at 37° C. for 0 minute or 30 minutes in the presence of 1 mmol/L NADPH in 0.2 mL of a buffer (60 mmol/L Tris-HCl pH 7.4, 150 mmol/L potassium chloride, 10 mmol/L magnesium chloride) containing 0.5 mg protein/mL of human liver microsomes. After the reaction, 50 μL of the reaction solution was added to 100 μL of a methanol/acetonltrile=1/1 (v/v), mixed and centrifuged at 3000 rpm for 15 minutes. The compound of the present invention in the supernatant was quantified by LC/MS/MS or solid phase extraction (SPE)/MS, and a remaining amount of the compound of the present invention after the reaction area calculated, letting a compound amount at 0 minute reaction time to be 100%.

[2] = JP 1st fluid, pH 1.2, simulated gastric fluid, read-out: JP1
[3] = JP 2nd fluid B, pH 6.8, aqueous buffer, read-out: JP2_μM

T1 sequence (P33261 whole entry): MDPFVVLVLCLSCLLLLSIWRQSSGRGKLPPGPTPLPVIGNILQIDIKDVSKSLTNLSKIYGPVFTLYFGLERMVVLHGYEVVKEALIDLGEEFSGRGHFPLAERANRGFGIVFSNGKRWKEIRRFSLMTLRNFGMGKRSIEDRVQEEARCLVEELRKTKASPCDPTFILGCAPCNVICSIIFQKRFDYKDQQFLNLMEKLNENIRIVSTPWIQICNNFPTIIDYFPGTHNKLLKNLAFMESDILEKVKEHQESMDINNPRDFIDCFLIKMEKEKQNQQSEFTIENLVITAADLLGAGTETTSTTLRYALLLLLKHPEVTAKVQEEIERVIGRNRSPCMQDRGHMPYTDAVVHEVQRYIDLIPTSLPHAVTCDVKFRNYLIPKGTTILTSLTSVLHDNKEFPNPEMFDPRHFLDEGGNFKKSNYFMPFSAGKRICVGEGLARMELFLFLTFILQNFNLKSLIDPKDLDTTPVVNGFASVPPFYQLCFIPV
T3 sequence (P08684 whole entry): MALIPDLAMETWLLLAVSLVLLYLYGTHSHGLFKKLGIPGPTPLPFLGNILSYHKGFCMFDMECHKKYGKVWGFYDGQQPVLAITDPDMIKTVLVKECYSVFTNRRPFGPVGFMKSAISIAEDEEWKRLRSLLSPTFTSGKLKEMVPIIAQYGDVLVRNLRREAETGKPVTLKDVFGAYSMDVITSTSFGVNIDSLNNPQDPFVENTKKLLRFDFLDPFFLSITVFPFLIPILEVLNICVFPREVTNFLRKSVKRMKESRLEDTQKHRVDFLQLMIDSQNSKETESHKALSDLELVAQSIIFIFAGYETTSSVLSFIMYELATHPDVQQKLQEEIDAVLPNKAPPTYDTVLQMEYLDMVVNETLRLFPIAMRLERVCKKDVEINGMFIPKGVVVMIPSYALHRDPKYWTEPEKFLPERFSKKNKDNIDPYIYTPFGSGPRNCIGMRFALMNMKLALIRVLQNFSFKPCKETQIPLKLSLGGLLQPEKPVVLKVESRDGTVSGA
T4 sequence (P56817 46-501): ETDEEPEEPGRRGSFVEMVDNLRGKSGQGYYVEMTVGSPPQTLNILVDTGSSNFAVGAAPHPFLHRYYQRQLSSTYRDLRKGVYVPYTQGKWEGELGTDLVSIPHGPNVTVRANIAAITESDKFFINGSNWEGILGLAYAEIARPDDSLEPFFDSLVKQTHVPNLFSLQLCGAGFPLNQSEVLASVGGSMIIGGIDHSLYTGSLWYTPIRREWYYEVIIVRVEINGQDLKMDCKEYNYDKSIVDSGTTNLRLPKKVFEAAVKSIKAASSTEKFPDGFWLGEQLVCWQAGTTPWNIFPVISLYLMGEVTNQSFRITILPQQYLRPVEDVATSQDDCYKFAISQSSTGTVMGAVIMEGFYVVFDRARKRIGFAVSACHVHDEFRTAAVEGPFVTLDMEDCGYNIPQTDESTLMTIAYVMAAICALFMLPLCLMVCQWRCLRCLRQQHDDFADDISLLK
T5 sequence (P11712 whole entry): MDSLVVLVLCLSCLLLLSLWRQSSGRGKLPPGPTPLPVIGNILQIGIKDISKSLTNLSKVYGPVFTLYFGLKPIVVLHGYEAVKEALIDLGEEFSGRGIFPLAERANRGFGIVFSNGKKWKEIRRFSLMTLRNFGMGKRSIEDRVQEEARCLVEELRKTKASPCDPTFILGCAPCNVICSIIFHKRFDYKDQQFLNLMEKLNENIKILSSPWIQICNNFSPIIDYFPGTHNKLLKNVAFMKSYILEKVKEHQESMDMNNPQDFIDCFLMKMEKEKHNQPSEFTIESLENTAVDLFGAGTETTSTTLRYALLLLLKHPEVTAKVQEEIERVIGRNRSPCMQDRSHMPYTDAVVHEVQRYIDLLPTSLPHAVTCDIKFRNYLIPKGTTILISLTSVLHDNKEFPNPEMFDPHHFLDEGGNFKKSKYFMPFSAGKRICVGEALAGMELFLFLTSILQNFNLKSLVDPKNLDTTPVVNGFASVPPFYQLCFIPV

Compound | IC50 (CYP2C19) [nM] | solubility kinetic at 1 h (Solubility test; [2]) [µM] | solubility kinetic at 16 h (Solubility test; read-out: JP2_μM) [µM] | IC50 (CYP1A2) [nM] | IC50 (CYP3A4) [nM] | IC50 (Recombinant human BACE1) [nM] | IC50 [1] [nM] | IC50 (CYP2C9) [nM] | remaining % (Metabolic stability test) [%] | solubility kinetic at 1 h (Solubility test; [3]) [µM]
COc1cnc(C(=O)Nc2ccc(F)c([C@@]3(C)N=C(N)O[C@H](C4(F)CC4)[C@@H]3F)c2)cn1 [Compound I-97] | ≥ 20000 | > 50 | >50.0 | ≥ 20000 | ≥ 20000 | 10.5 | 2.5 | – | – | –
COc1ccc(C(=O)Nc2ccc(F)c([C@@]3(C)N=C(N)O[C@H](C(F)(F)C4CC4)[C@@H]3F)c2)nn1 [Compound I-95] | ≥ 20000 | > 50 | >50.0 | ≥ 20000 | ≥ 10000 | 23.5 | 450 | ≥ 10000 | 105 | –
CC[C@H]1SC(N)=N[C@](C)(c2cc(NC(=O)c3ncc(C#N)cc3C)ccc2F)[C@H]1F [Compound I-68] | ≥ 20000 | > 50 | – | ≥ 20000 | ≥ 10000 | 11.6 | 0.41 | – | – | 9.1 (≈ 3.91 µg/mL)
[2H]C([2H])([2H])Oc1cnc(C(=O)Nc2ccc(F)c([C@@]3(C)N=C(N)S[C@H](C)[C@@H]3F)c2)cn1 [Compound I-111] | ≥ 20000 | 48.4 (≈ 19.9 µg/mL) | – | ≥ 20000 | ≥ 20000 | 10.3 | 0.97 | – | 64.9 | > 50
COC[C@H]1SC(N)=N[C@](C)(c2cc(NC(=O)c3ccc(C#N)cn3)ccc2F)[C@H]1F [Compound I-92] | ≥ 20000 | > 50 | >50 | ≥ 20000 | ≥ 20000 | 8.27 | 1 | – | 81 | –
